Reference: publication PMC10132538, “Regulation of the two-pore domain potassium channel, THIK-1 and THIK-2, by G protein coupled receptors” (PLOS ONE, 2023)

What was measured:
M1R = molecular target: T1, M1R (Homo sapiens, UniProt P11229); assay: M1R-induced increase of THIK-1 channel current, whole cell patch clamp in HEK293T cells; type: cell-based; conditions: BAPTA 5 mM in pipette solution, n = 8
T1 construct: expressed in transfected cells; host or cells: HEK293T
T1 sequence (P11229 1-460): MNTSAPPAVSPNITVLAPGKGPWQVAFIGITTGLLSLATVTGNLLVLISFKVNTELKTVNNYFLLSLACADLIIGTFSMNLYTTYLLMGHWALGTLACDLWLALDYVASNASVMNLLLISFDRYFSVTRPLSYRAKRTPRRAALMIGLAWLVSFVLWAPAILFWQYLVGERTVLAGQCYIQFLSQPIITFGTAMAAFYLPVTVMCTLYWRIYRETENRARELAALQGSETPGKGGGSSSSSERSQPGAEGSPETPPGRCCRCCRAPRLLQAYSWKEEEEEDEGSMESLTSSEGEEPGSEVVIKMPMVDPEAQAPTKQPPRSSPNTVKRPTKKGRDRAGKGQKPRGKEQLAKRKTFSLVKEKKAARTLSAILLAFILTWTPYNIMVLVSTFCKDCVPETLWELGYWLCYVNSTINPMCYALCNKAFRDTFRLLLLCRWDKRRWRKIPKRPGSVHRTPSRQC
Excerpt: (§1) Coding region of mGu2 (M1-P840) was amplified by conventional PCR with designed primers and the resulting product was subcloned into pEYFP-N1 vector at the BglII and EcoRI sites. The cDNAs for mouse THIK-2 channel and dimeric THIK channels were subcloned into pcDNA3.1(-) vector. To increase the surface membrane expression of the THIK-2 channel, 29 residues (Ser2-Ser30) were removed (ΔN-THIK-2). […] Ci-VSP-IRES-GFP vector was kindly gifted by Dr. Y. Okamura (Osaka University, Osaka, Japan). HEK293T cells or CHO-K1 cells were seeded on glasses and transfected with the plasmid DNAs for THIK channels, receptors and a transfection marker of yellow fluorescent protein (YFP). Electrophysiological experiments were performed 24–72 h after the transfection. […] Pertussis toxin (PTX) was purchased from Wako (Osaka, Japan). […] All reagents were dissolved at high concentration and stored at -20 °C as the stock solutions. The stock reagent solution was diluted at concentrations for the electrophysiological experiments. PTX was solved in the culture medium (final concentration, 300 ng/mL) and cells were incubated in it for more than 16 h. U73122 or U73343 (final concentration, 2 μM each) was dissolved in Hanks’ Balanced Salt Solution (HBSS, Invitrogen, Carlsbad, CA, USA) supplemented with 1 mM Ca^2+ and 0.3 mM Mg^2+. Cells were incubated in HBSS with U73122 or U73343 for 10 min at room temperature before the whole cell current recording.
(§2) Composition of bath solution was (in mM) 140 NaCl, 4 KCl, 1 CaCl2, 0.3 MgCl2, 10 HEPES (pH 7.4 adjusted with NaOH). The pipette solution for whole cell patch clamp experiments contained (mM) 130 KCl, 5 Na2-ATP, 3 EGTA, 0.1 CaCl2, 10 HEPES, 4 MgCl2, (pH 7.3 adjusted with KOH). GTP (0.3 mM) was supplemented in the pipette solution. Once the whole cell configuration was established, the cell was held at -80mV and ramp pulses (-120mV to +40mV for 0.4 sec) were applied every 5 sec. Various concentrations of the agonists were applied using a fast perfusion system (VC77SP, Warner Instruments, Hamden, CT, USA). The PKC inhibitor chelerythrine was included in the pipette solution.
(§3) The amplitude of the THIK-1 channel current at 0 mV was measured from every trace induced by the ramp pulse protocol to minimize the fraction of non-selective cationic leak current. The current amplitude before the agonist application was set as the basal current amplitude (I0). The effects of GPCRs on the THIK-1 channel were evaluated as the ratio of the current amplitude after the agonist application to I0 (Iagonist/I0). The EC50 values were estimated by fitting the concentration response curve to a Hill equation (Origin2016; OriginLab, Northampton, MA, USA). […] The effects of A2aR on the Gi/o-R-induced current increase of the THIK-1 channel was estimated as follows. […] All data are shown as means and S.D. The statistical significance between two or more than two groups was estimated by unpaired Student’s t-test or by a one-way analysis of variance (ANOVA) followed by Tukey’s test, respectively. […] Values of p≤ 0.05 were considered as statistically significant (***:p≤0.001, **:0.001<p≤0.01, *:0.01<p≤0.05, n.s.:p>0.05).

[1] = test system: endogenously expressed channels in HEK293T cells; assay: Effect of receptor stimulation on the endogenous current in HEK293T cells without THIK-1; type: cell-based; conditions: HEK293T transfected with GABABR, no THIK-1
Excerpt: The amplitude of the current increase at the 15th trace (ΔI15th) after the application of GABA or oxo-M were normalized to that at the 5th traces (ΔI5th) with or without additional activation of A2aR (ΔI15th/ΔI5th).
The current density at 0 mV (I0) in HEK293T cell transfected with indicated receptors and the effects of the receptor stimulation are shown as Mean and S.D.

[2] = test system: intracellular cAMP (Gs signaling, A2aR); assay: Intracellular cAMP, FRET based cAMP indicator in HEK293T cells; type: cell-based; conditions: NECA 10 μM
Description: HEK293T cells were culture on the glass bottom dishes and transfected with cDNAs for FRET based cAMP indicators and A2aR. […] transfection, cells were incubated in bath solution containing (mM) 140 NaCl, 1 CaCl2, 4 KCl, 0.3 MgCl2, 10 HEPES (pH was adjusted to 7.4 with NaOH) and fluorescent signals were acquired as previously described. CFP was excited by 442 nm laser line and emitted light was passed through S470/30 and S535/30 filters (Chroma), respectively. The fluorescence images were then amplified by an image intensifier unit (C8600, Hamamatsu Photonics) and recorded every 5 s using a cooled CCD camera (Qimage Retiga 6000, Roper Scientific). A laser switching controller (Olympus) was operated by using MetaFluor imaging software (Universal Imaging). The fluorescent intensities of CFP and YFP upon the CFP excitation were measured from fluorescent cells and cell free background.
Time dependent changes of the FRET efficiency of the FRET based cAMP indicator (FFRET/FCFP) are shown. Black bars show the application of the reagents, which was carried out by perfusion of the chamber (0.2-0.3 mL bath volume) with bath solution (1 mL) containing the reagent. […] The decrease in FRET were thought to be caused by the activation of the endogenous A2aR (Fig. S2E). Symbols show mean and SD.

mGlu1 = molecular target: T2, mGlu1 (Homo sapiens, UniProt Q13255); assay: mGlu1-induced increase of THIK-1 channel current, whole cell patch clamp in HEK293T cells; type: cell-based; conditions: 2 μM for 10 min; glutamate 1 mM
T2 construct: expressed in transfected cells; host or cells: HEK293T
T2 sequence (Q13255 19-1194): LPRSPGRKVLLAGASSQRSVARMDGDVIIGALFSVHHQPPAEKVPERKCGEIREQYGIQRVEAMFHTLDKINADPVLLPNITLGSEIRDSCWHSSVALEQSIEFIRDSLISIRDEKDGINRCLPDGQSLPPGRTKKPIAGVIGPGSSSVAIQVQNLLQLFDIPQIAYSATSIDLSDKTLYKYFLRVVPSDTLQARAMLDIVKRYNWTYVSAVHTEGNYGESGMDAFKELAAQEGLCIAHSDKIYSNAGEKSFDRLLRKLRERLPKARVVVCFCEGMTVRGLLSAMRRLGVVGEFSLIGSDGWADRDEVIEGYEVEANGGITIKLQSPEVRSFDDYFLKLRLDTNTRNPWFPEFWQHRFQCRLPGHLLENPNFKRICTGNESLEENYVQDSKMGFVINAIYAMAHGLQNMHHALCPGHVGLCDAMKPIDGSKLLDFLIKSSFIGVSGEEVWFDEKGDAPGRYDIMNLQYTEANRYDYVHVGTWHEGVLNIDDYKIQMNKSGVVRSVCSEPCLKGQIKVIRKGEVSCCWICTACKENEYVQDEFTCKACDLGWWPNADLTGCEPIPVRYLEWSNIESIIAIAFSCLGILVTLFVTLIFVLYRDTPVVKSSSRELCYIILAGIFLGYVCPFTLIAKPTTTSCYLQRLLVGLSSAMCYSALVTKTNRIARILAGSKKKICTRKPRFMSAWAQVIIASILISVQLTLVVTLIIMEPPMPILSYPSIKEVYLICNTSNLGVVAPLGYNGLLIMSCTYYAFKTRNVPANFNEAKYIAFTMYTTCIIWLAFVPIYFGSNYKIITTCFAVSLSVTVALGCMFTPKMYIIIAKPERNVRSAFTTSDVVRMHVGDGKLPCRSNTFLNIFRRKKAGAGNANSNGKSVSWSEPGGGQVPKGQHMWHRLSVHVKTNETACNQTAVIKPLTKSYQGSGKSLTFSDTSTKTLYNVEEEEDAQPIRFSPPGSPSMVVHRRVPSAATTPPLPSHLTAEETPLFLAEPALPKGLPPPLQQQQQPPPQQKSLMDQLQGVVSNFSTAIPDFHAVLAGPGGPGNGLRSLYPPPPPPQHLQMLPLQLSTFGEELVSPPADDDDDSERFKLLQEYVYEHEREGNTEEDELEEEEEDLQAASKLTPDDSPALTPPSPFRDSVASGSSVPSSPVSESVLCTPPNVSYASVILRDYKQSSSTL
Excerpt: as §1, with “PTX was solved in the culture medium (final concentration, 300 ng/mL) and cells were incubated in it for more than 16 h. U73122 or U73343 (final concentration, 2 μM each) was dissolved in Hanks’ Balanced Salt Solution (HBSS, Invitrogen, Carlsbad, CA, USA) supplemented with 1 mM Ca^2+ and 0.3 mM Mg^2+. Cells were incubated in HBSS with U73122 or U73343 for 10 min at room temperature before the whole cell current recording.” left out
The amplitude of the THIK-1 channel current at 0 mV was measured from every trace induced by the ramp pulse protocol to minimize the fraction of non-selective cationic leak current. […] The effects of GPCRs on the THIK-1 channel were evaluated as the ratio of the current amplitude after the agonist application to I0 (Iagonist/I0). […]

THIK-1 channel = assay: Basal current (I0) density of THIK-1 channel at 0 mV in HEK293T cells; type: cell-based; conditions: 0 mV, before agonist
Excerpt: as §1, §2, §3

[3] = molecular target: T3, M1R-YFP / ΔN-THIK-2 channel (Homo sapiens, UniProt P11229); assay: M1R-YFP-induced increase of ΔN-THIK-2 channel current in CHO-K1 cells; type: cell-based, mouse; conditions: oxo-M 10 μM
T3 construct: expressed in transfected cells; host or cells: CHO-K1
T3 sequence (P11229 1-460): T1 sequence (P11229 1-460)
Excerpt: as §1, with “Cells were incubated in HBSS with U73122 or U73343 for 10 min at room temperature before the whole cell current recording.” left out

## O=C(O)CN(CC(=O)O)c1ccccc1OCCOc1ccccc1N(CC(=O)O)CC(=O)O [BAPTA]
M1R
  effect of the M1R activation (Iagonist/I0): 3.0 ± 1.0

## NCCCC(=O)O [GABA]
[1]
  Effect of agonist (Iagonist/I0): 1.03 ± 0.06

## CCNC(=O)[C@H]1O[C@@H](n2cnc3c(N)ncnc32)[C@H](O)[C@@H]1O [NECA, 5’-N-ethylcarboxamidoadenosine]
[2]; HEK293T transfected with heterologous A2aR
  Gs signaling (cAMP indicator): fully activated
[2]; HEK293T without heterologous A2aR (endogenous A2aR), effect partial
  intracellular cAMP: increased the intracellular cAMP

## COc1ccc2c(c1)CC[C@@H]1[C@@H]2CC[C@]2(C)[C@@H](NCCCCCCN3C(=O)C=CC3=O)CC[C@@H]12 [U73122]
mGlu1
  effect of mGlu1 on THIK-1 current after PLC reagent: inhibited
THIK-1 channel; THIK-1 + M1R, PLC reagent 2 μM 10 min
  Basal current (I0) density of THIK-1 channel: 35.7 ± 34.7 (9)^n.s pA/pF
THIK-1 channel; THIK-1 + M3R, PLC reagent 2 μM 10 min
  Basal current (I0) density of THIK-1 channel: 99.2 ± 117.3 (7)^n.s pA/pF
THIK-1 channel; THIK-1 + mGlu1, PLC reagent 2 μM 10 min
  Basal current (I0) density of THIK-1 channel: 112.2 ± 121.4 (10)^n.s pA/pF
[3]
  effect of M1R-YFP on ΔN-THIK-2 channel after PLC reagent: inhibited
